Results taken from patent US20240002870A1, “RAPID TRANSFORMATION OF MONOCOT LEAF EXPLANTS” (PIONEER HI-BRED INTERNATIONAL, INC., priority 2020, published 2024).
Several values for one entry are separate records, joined by “and”; a condition that tells them apart may be missing. Equal values may be shown once.

Key:
[1] = tested on: maize plants with edited or wild-type ALS2 alleles; assay: Chlorsulfuron resistance test of plants with edited and wild-type ALS2 alleles (spray, germination on medium); assay type: in vivo; conditions: for plants fourteen days after germination on media: 100 ppm; for phenotype three weeks after treatment: spray 50, 100 (1x), 200, 400 mg/liter
[2] = tested on: Pioneer inbred PHH5E leaf segments; assay: Auxin (2,4-D) pre-treatment of seedlings prior to Agrobacterium infection (Table 29); assay type: cell-based, maize; conditions: for T-DNA Delivery: PHP71539 plus PHP97334
[3] = tested on: inbred PHH5E seedling-derived leaf segments; assay: Seedling pre-treatment with ancymidol before leaf transformation; assay type: cell-based, maize; conditions: PHP97334
[4] = tested on: Japonica rice (Oryza sativa var Kitaake), teff (Eragrostis tef), pearl millet (Pennisetum glaucum) seedlings; assay: Ancymidol pretreatment during seed germination and seedling growth of other cereals; assay type: cell-based; conditions: 1 mg/l in 900 medium; all three cereal crops
Description: Both […] ancymidol pretreatments during seed germination and seedling growth were tested (using medium 900 plus 1 mg/l or 2 mg/l ancymidol) on three cereals Japonica rice (Oryza sativa var Kitaake), teff (Eragrostis tef), and pearl millet (Pennisetum glaucum). […] When seed from all three species were germinated and grown on 900 medium plus 2 mg/l ancymodiol, the seedlings only grew to a height of 1-2 cm after 14 days and although the leaf-whorl region was thicker (due to wider leaves), processing these small seedlings to produce leaf segments followed by transformation was more difficult.
In contrast, for all three cereal crops, seed germination and seedling growth on 900 plus 1 mg/l ancymidol produced an intermediate growth rate, with thicker stems and wider leaves than the control (with no ancymidol). […] Thus, compared to maize and sorghum in which 2 mg/l ancymidol pretreatment during seedling growth is optimal for leaf transformation, a lower concentration of 1 mg/l ancymidol produced optimal results in rice, tef, and pearl millet.

COc1nc(C)nc(NC(=O)NS(=O)(=O)c2ccccc2Cl)n1 [chlorsulfuron]
plants fourteen days after germination on media ([1]; plants with edited alleles): normal height and a well-developed root system | plants fourteen days after germination on media ([1]; plants with wild-type alleles): short and do not develop roots | phenotype three weeks after treatment ([1]; T1 plants with only wild-type alleles): strong signs of senescence | phenotype three weeks after treatment ([1]; four-week old T1 plants with an edited ALS2 allele): normal phenotype

O=C(O)COc1ccc(Cl)cc1Cl [2,4-D, 2,4-dichlorophenoxyacetic acid]
No. SC Clean (single-copy T-DNA integration with no extraneous Agrobacterium sequences) ([2]; 3 mg/l 2,4-D for 24 hours): 18 | No. SC Clean (single-copy T-DNA integration with no extraneous Agrobacterium sequences) ([2]; 10 mg/l 2,4-D for 24 hours): 40 | T-DNA Delivery ([2]; 10 mg/l 2,4-D for 24 hours before infection): 4 (90-100%) | effect on leaf transformation (Txn %, single-copy T-DNA integrations) compared to the control treatment ([2]; 10 mg/l, 24 hours): improved leaf transformation | No. SC Clean (single-copy T-DNA integration with no extraneous Agrobacterium sequences) ([2]; 30 mg/l 2,4-D for 24 hours): 19 | T-DNA Delivery ([2]; 30 mg/l 2,4-D for 24 hours before infection): 4 (90-100%)

COc1ccc(C(O)(c2cncnc2)C2CC2)cc1 (centres unmarked) [Ancymidol, ancymidol]
Txn % ([3]; 2 mg/l): 236% and 358% and 303% | Txn % ([3]; 2 mg/l, listed as ancymidol): 302% | Txn % ([3]; 2 mg/l, total over three experiments): 302% | Txn % ([3]; 4 mg/l): 234% and 252% and 253% | Txn % ([3]; 4 mg/l, listed as ancymidol): 246% | Txn % ([3]; 4 mg/l, total over three experiments): 246% | transgenic T0 plantlets compared to the other two treatments [4]: produced the highest number of transgenic TO plantlets
